Assay results as given in US7109380B2, “Cyclopentenedione antifungal compounds and methods for their use” (The University of Mississippi, priority 2004, dated 2006).
≈ marks a conversion by molar mass, not a printed value. Where “and” joins values, the source holds several entries; their conditions need not be identical. Equal values may be shown once. Read-outs that look alike come from different tables or passages of the source.

Key:
[1] = tested on: wheat leaf rust caused by Puccinia recondite; details: background; cited from earlier work
[2] = tested on: C. albicans ATCC 90028; experiment: In vitro antimicrobial assay (modified NCCLS), Candida media pH 4.5; format: cell-based, Candida albicans; details: C. albicans ATCC 90028, pH 4.5, Table 3; for IC50: read-out: IC50 (50% inhibitory concentration)
[3] = tested on: C. glabrata ATCC 90030; experiment: as above; format: cell-based, Candida glabrata; details: C. glabrata ATCC 90030, pH 4.5; for IC50: read-out: IC50 (50% inhibitory concentration)
[4] = tested on: C. krusei ATCC 6258; experiment: as above; format: cell-based, Candida krusei; details: C. krusei ATCC 6258, pH 4.5; for IC50: Pichia kudriavzevii, ATCC6258, read-out: IC50 (50% inhibitory concentration)
[5] = tested on: Cryptococcus neoformans ATCC 90113; experiment: In vitro antifungal susceptibility testing (modified NCCLS method); format: cell-based; details: for IC50: read-out: IC50 (50% inhibitory concentration)
[6] = tested on: M. intracellulare ATCC 23068; experiment: In vitro antibacterial assay (modified method of Franzblau, Alamar Blue); format: cell-based; details: Mycobacterium intracellulare, ATCC23068, M. intracellulare ATCC 23068; for IC50: read-out: IC50 (50% inhibitory concentration); for MBC: read-out: MBC (Minimum Bactericidal Concentration)
[7] = tested on: several cancer cell lines; details: background; cited from earlier work
[8] = target: human chymase (Homo sapiens, UniProt P23946); details: background; cited from earlier work
[9] = tested on: Candida albicans ATCC 90028; experiment: In vitro antifungal susceptibility testing (modified NCCLS method), media pH 7.3; format: cell-based; details: Candida albicans ATCC 90028, Table 1
[10] = Candida albicans, ATCC90028, read-out: MIC
[11] = Nakaseomyces glabratus, ATCC90030
[12] = Cryptococcus neoformans, ATCC90113, Cr. neoformans ATCC 90113, Table 3
[13] = Candida albicans, ATCC90028, read-out: MFC
[14] = Nakaseomyces glabratus, ATCC90030, read-out: MFC
[15] = Nakaseomyces glabratus, ATCC90030, read-out: MIC
[16] = Cr. neoformans ATCC 90113, Table 3
[17] = Cryptococcus neoformans ATCC 90113, Table 1

human chymase, sequence (P23946 22-247): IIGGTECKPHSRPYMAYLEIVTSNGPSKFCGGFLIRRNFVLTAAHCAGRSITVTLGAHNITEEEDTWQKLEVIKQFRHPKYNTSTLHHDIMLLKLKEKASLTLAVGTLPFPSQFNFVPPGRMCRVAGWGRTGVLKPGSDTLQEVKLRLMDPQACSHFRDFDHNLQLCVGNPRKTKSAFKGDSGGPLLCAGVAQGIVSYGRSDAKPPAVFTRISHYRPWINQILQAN

SMILES	IC50 ([2]; Candida albicans, ATCC90028) [µg/mL]	MIC [2, 10] [µg/mL]	IC50 [3, 11] [µg/mL]	IC50 [4] [µg/mL]	IC50 [5, 12] [µg/mL]	MIC [6] [µg/mL]	IC50 [6] [µg/mL]	MBC [6] [µg/mL]	MFC [2, 13] [µg/mL]	MFC [3, 14] [µg/mL]	MIC [3, 15] [µg/mL]	also measured
COC1=CC(=O)/C(=C(\C=C\c2ccccc2)OC)C1=O [methyllucidone]												Antifungal activity against wheat leaf rust (in words) [1]: moderately antifungal activity
CC(=O)OC(/C=C/c1ccccc1)=C1/C(=O)C=C(C)C1=O [Compound 8]	1 (≈ 3.54 µM)	10 (≈ 35.4 µM)	5.5 (≈ 19.5 µM)	9 (≈ 31.9 µM)	4.5 (≈ 15.9 µM)	20 (≈ 70.8 µM)	15 (≈ 53.1 µM)	20 (≈ 70.8 µM)				
COC(/C=C/c1ccccc1)=C1C(=O)C(OC)=C(OC)C1=O [methyllinderone]												Cytotoxicity (in words) [7]: cytotoxic; Inhibition of human chymase (in words) [8]: moderate inhibitor
CC1=CC(=O)/C(=C(O)/C=C/c2ccccc2)C1=O [Compound 2, coruscanone B]	1 (≈ 4.16 µM)	2.5 (≈ 10.4 µM)	1.5 (≈ 6.24 µM)	4.5 (≈ 18.7 µM)	20 (≈ 83.2 µM)	20 (≈ 83.2 µM)	10 (≈ 41.6 µM)		5 (≈ 20.8 µM)	5 (≈ 20.8 µM)	2.5 (≈ 10.4 µM)	melting point: 125 °C and 124 °C; MIC ([9]; ATCC90028, read-out: MIC (Minimum Inhibitory Concentration)): 50 µg/mL (≈ 208 µM)
C[C@@H]1[C@H](O)[C@@H](C)/C=C/C=C/C=C/C=C/C=C/C=C/C=C/[C@H](O[C@@H]2O[C@H](C)[C@@H](O)[C@H](N)[C@@H]2O)C[C@@H]2O[C@](O)(C[C@@H](O)C[C@@H](O)[C@H](O)CC[C@@H](O)C[C@@H](O)CC(=O)O[C@H]1C)C[C@H](O)[C@H]2C(=O)O [Amphotericin B, reference compound]												IC50 (50% inhibitory concentration) [2]: 0.45 µg/mL (≈ 0.487 µM); MFC [2]: 1.25 µg/mL (≈ 1.35 µM); MIC [2]: 1.25 µg/mL (≈ 1.35 µM); IC50 (50% inhibitory concentration) [3]: 0.20 µg/mL (≈ 0.216 µM); MFC [3]: 1.25 µg/mL (≈ 1.35 µM); MIC [3]: 1.25 µg/mL (≈ 1.35 µM); IC50 (50% inhibitory concentration) [4]: 0.45 µg/mL (≈ 0.487 µM); MFC [4]: 1.25 µg/mL (≈ 1.35 µM); MIC [4]: 1.25 µg/mL (≈ 1.35 µM); IC50 (50% inhibitory concentration) [5, 16]: 0.50 µg/mL (≈ 0.541 µM); MFC [5, 16]: 1.25 µg/mL (≈ 1.35 µM); MIC [5, 16]: 1.25 µg/mL (≈ 1.35 µM); MFC (Minimum Fungicidal Concentration) [5, 17]: 2.5 µg/mL (≈ 2.71 µM); MIC (Minimum Inhibitory Concentration) [5, 17]: 2.5 µg/mL (≈ 2.71 µM); MFC (Minimum Fungicidal Concentration) [9]: 5.00 µg/mL (≈ 5.41 µM); MIC (Minimum Inhibitory Concentration) [9]: 2.50 µg/mL (≈ 2.71 µM)
CCOC(/C=C/c1ccccc1)=C1/C(=O)C=C(C)C1=O [Compound 7]	2 (≈ 7.45 µM)	5 (≈ 18.6 µM)	4.5 (≈ 16.8 µM)	8 (≈ 29.8 µM)	2 (≈ 7.45 µM)	20 (≈ 74.5 µM)	7.5 (≈ 28 µM)	20 (≈ 74.5 µM)	10 (≈ 37.3 µM)	20 (≈ 74.5 µM)	10 (≈ 37.3 µM)	MIC ([5]; Cryptococcus neoformans, ATCC90113, Cr. neoformans ATCC 90113, Table 3, read-out: MIC): 20 µg/mL (≈ 74.5 µM)
